{"source": "patent US20220354119A1", "about": "“COMPOSITION OF A RHEOLOGY MODIFIER AND DIHALOHYDANTOIN” (Rohm and Haas Company, priority 2019, published 2022)", "note": "“Also recorded” adds a separate entry of the source. Structures can show the parent of a compound that is named as a salt.", "data": [{"tested_on": "pool of 6 different Gram negative and Gram positive bacterial strains", "assay": "Bacterial challenge test (TAUNOVATE III High Throughput testing system, MPN)", "assay_type": "cell-based", "details": "300 ppm biocide in HEUR; 30° C., repeated challenges", "procedure": "(§1) Efficacy of all biocides were determined as described for 1-bromo-3-chloro-5,5-dimethylhydantion. The only difference was the concentration of the biocide, which is shown as a range in Table 1.\n(§2) 1-Bromo-3-chloro-5,5-dimethylhydantoin (0.5% aqueous solution) was prepared by dispersing Chlorox Pool and Spa (0.25 g in 49.75 g water). Unpreserved RM-2020E thickeners were dosed with biocide and challenge tested with bacteria using the TAUNOVATE℠ III High Throughput testing system. In general, the tested biocides were calibrated for density and prepared at levels 10× higher than the target concentrations using a robotic system. For example, to target 15 ppm and 40 ppm concentrations of 1-bromo-3-chloro-5,5-dimethylhydantoin respectively, 150 ppm and 400 ppm concentrations of 1-bromo-3-chloro-5,5-dimethylhydantoin were prepared by the automated system. […]\n(§3) The inoculum was prepared by making a 1:1 pool of overnight cultures of 6 different Gram negative and Gram positive bacterial strains, and then diluted 1:20 with tryptic soy broth. […] Three additional challenges were performed 7 d apart with fresh bacterial cultures and growth recovery was assessed 1 and 7 d after inoculation. […]\n(§4) (TSB) with indicator. […] The MPN was calculated to determine the relative growth scale rating, which is a measure of the passing or failure of the sample for growth. […]", "values": [{"molecule": "CCCCCCCCCCCCNC(=N)N", "note": "[Dodecylguanidine Hydrochloride]", "Challenge Test": "Fail (The pass/fail criterion for biocide efficacy was determined by the formation of less than 1×10^4 colony forming units per mL (CFU/mL) of sample tested)"}]}, {"tested_on": "pool of 6 different Gram negative and Gram positive bacterial strains", "assay": "Bacterial challenge test (TAUNOVATE III High Throughput testing system, MPN)", "assay_type": "cell-based", "details": "400 ppm biocide in HEUR prepared with 10-15% surfactant; 30° C., repeated challenges", "procedure": "as §1, §2, §3, §4", "values": [{"molecule": "CCCCCCCCCC[N+](C)(C)CCCCCCCCCC.[Cl-]", "note": "[Didecyldimethylammonium chloride]", "Challenge Test": "Fail (The pass/fail criterion for biocide efficacy was determined by the formation of less than 1×10^4 colony forming units per mL (CFU/mL) of sample tested)"}]}, {"tested_on": "not listed separately", "assay": "Heat age stability of HEUR-biocide formulation (appearance after heat aging)", "assay_type": "physicochemical", "details": "biocide admixed with HEUR rheology modifier (RM-2020E or RM-8W); oven 50° C. for 2 weeks", "procedure": "A number of biocides were admixed with ACRYSOL™ RM-2020E Rheology Modifier (RM-2020E, A Trademark of The Dow Chemical Company or Its Affiliates) and ACRYSOL™ RM-8W (RM-8W). In addition to testing biocides admixed with RM-2020E or RM-8W as-delivered, acid was also added to the rheology modifiers to lower the pH to approximately 4.5. Samples prepared with the biocide didecyldimethylammonium chloride were only tested when RM-2020E and RM-8W were prepared with 10-15% surfactant in the composition. The compositions were heat-aged in an oven maintained at 50° C. for 2 weeks. Heating aging was also carried out for RM-2020E in the absence of any biocide. If the composition failed the heat aging test, it was not tested for efficacy.\nAll heat aged samples were compared against a reference HEUR (RM-2020E or\nThe pass/fail criterion for biocide efficacy was determined by the formation of less than 1×10^4 colony forming units per mL (CFU/mL) of sample tested.", "values": [{"molecule": "CC1(C)C(=O)N(Cl)C(=O)N1Br", "note": "[1-bromo-3-chloro-5,5-dimethylhydantoin]", "Sample Appearance after Heat Age testing": "non-degradative; also recorded: unchanged"}, {"molecule": "CCCCCCCCCC[N+](C)(C)CCCCCCCCCC.[Cl-]", "note": "[Didecyldimethylammonium chloride]", "Sample Appearance after Heat Age testing": "unchanged"}, {"molecule": "C/C=C/C=C/C(=O)[O-].[K+]", "note": "[Potassium sorbate]", "Sample Appearance after Heat Age testing": "Brown"}, {"molecule": "[Na+].[O-]c1ccccc1-c1ccccc1", "note": "[Sodium o-phenylphenolate]", "Sample Appearance after Heat Age testing": "White"}, {"molecule": "[Na+].[O-][n+]1ccccc1[S-]", "note": "[Sodium pyrithione]", "Sample Appearance after Heat Age testing": "Bright yellow"}, {"molecule": "Oc1ccccc1-c1ccccc1", "note": "[o-phenylphenol]", "Sample Appearance after Heat Age testing": "White"}, {"molecule": "Zinc pyrithione", "Sample Appearance after Heat Age testing": "White sediment"}]}]}
